Source: patent US6967196B1, “Sulfonamide compounds and uses thereof” (Bristol-Myers Squibb Company, priority 1999, dated 2005)
Counter-ions that a name gives are not always drawn. Like-named read-outs stand apart in the source and are kept apart here. Values belong to the compound of their own block, whether it stands above or below them.

Test system: amyloid β production in transfected H4 (human neuroglioma) cells stably expressing APP constructs
Experiment: In vitro cell-based assay of inhibitors of amyloid β production (ELISA)
Details: amyloid β in medium by ELISA, read-out: ACTIVITY (IC50, inhibition of amyloid β production)
Procedure, shortened: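 Plate wt/variant APP cells; ≥6 h later swap to medium + compound (10-100 μM screen); incubate ~16 h; sample medium; Aβ ELISA with C-terminal capture / N-terminal detection Abs; quantify vs Aβ standard curve.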

[1] = Homo sapiens, 16 h, transfected H4 cells stably expressing APP, approximately 16 hours incubation
[2] = transfected H4 cells stably expressing APP, approximately 16 hours incubation
[3] = transfected H4 cells stably expressing APP, approximately 16 hours incubation, Table B
[4] = transfected H4 cells stably expressing APP, approx. 16 h incubation
[5] = transfected H4 cells stably expressing APP constructs, approximately 16 hours incubation

Compound: 3-((4R)-4-{[(4-chlorophenyl)sulfonyl]-2,5-difluoroanilino}-7-fluoro-1,2,3,4-tetrahydro-1-naphthalenyl)propanoic acid [Example 1007]
IC50 [2]: > 500 nM

Compound: CC1(O)CCN(CCCOc2ccccc2CN(c2ccccc2)S(=O)(=O)c2ccc(Cl)cc2)CC1 [Example 965, 4-chloro-N-{2-[3-(4-hydroxy-4-methyl-1-piperidinyl)propoxy]benzyl}-N-phenylbenzenesulfonamide hydrochloride]
IC50 [1]: > 500 nM

Compound: O=S1(=O)c2cccc3cccc(c23)N1Cc1ccccc1OCCCN1CCCCC1 [Example 269, 2-{2-[3-(1-piperidinyl)propoxy]benzyl}-2H-naphtho[1,8-cd]isothiazole 1,1-Dioxide Hydrochloride]
IC50 [3]: 25 to 50 nM

Compound: 2-((1R)-1-{[(4-chlorophenyl)sulfonyl]-2,5-difluoroanilino}ethyl)benzyl 4-fluorobenzylcarbamate [Example 748]
IC50 [4]: 100 to 500 nM

Compound: CC(C)[S+]([O-])CCC[C@@H](C)N(c1cc(Cl)ccc1Cl)S(=O)(=O)c1ccc(Cl)cc1 (stereo partly shown) [Example 1169]
IC50 [5]: ≤ 25 nM

Compound: ethyl (2R)-2-{[(4-chlorophenyl)sulfonyl]-2,5-difluoroanilino}propanoate [Example 1060]
IC50 [2]: > 500 nM

Compound: S-methyl 4-[2-(1-{3-[2-(1-{[(4-chlorophenyl)sulfonyl]-2,5-difluoroanilino}ethyl)phenoxy]butyl(ethyl)thiocarbamate [Example 714]
IC50 [4]: 100 to 500 nM

Compound: CC(CCCN)N(c1cc(Cl)ccc1Cl)S(=O)(=O)c1ccc(Cl)cc1 (stereo not shown) [Example 1152]
IC50 [5]: 100 to 500 nM

Compound: C[Si](C)(C)C#Cc1ccccc1CN(c1ccccc1)S(=O)(=O)c1ccc(Cl)cc1 [Example 1087, 4-chloro-N-phenyl-N-{2-[(trimethylsilyl)ethynyl]benzyl}benzenesulfonamide]
IC50 (Homo sapiens, transfected H4 cells stably expressing APP constructs, approximately 16 hours incubation): > 10000 nM

The next lines start with the values.

IC50 [1]: > 500 nM
Compound: COc1cc(C(=O)N2CCCCC2CCOc2ccccc2CN(c2cc(F)ccc2F)S(=O)(=O)c2ccc(Cl)cc2)cc(OC)c1OC (stereo not shown) [Example 938, 4-chloro-N-(2,5-difluorophenyl)-N-(2-{2-[1-(3,4,5-trimethoxybenzoyl)-2-piperidinyl]ethoxy}benzyl)benzenesulfonamide]

IC50 (Homo sapiens, 16 h, transfected H4 cells stably expressing APP, approx. 16 h incubation): 100 to 500 nM
Compound: O=S(=O)(c1ccc(Cl)cc1)N(Cc1ccccc1OCCC1CCCCN1Cc1cc(F)cc(F)c1)c1cc(F)ccc1F (stereo not shown) [Example 746, 4-chloro-N-(2-{2-[1-(3,5-difluorobenzyl)-2-piperidinyl]ethoxy}benzyl)-N-(2,5-difluorophenyl)benzenesulfonamide]

IC50 [1]: > 500 nM
Compound: O=S(=O)(c1ccc(Cl)cc1)N(Cc1ccccc1OCCCN1CCc2ccccc2C1)c1ccccc1 [Example 999, 4-chloro-N-{2-[3-(3,4-dihydro-2(1H)-isoquinolinyl)propoxy]benzyl}-N-phenylbenzenesulfonamide]

IC50 [3]: 50 to 100 nM
Compound: CNC(=O)COc1ccccc1C(C)N(c1cc(F)ccc1F)S(=O)(=O)c1ccc(Cl)cc1 (stereo not shown) [Example 381, [2-(1-{[(4-Chlorophenyl)sulfonyl]-2,5-difluoroanilino}ethyl)phenoxy]-N-methylacetamide]

IC50 [1]: 100 to 500 nM
Compound: O=S(=O)(CCCOc1ccccc1CN(c1cc(F)ccc1F)S(=O)(=O)c1ccc(Cl)cc1)c1ccccc1 [Example 818, 4-chloro-N-(2,5-difluorophenyl)-N-{2-[3-(phenylsulfonyl)propoxy]benzyl}benzenesulfonamide]

IC50 [2]: > 500 nM
Compound: O=S(=O)(c1ccc(Cl)cc1)N(Cc1ccccc1OCCC[N+]1([O-])CCCCC1)c1ccccc1 [Example 883]

IC50 [3]: 100 to 500 nM
Compound: C[C@H](c1ccc(F)cc1CCS(=O)(=O)CCC(=O)O)N(c1cc(F)ccc1F)S(=O)(=O)c1ccc(Cl)cc1 [Example 475, 3-({2-[2-((1R)-1-{[(4-chloro-phenyl)sulfonyl]-2,5-difluoroanilino}ethyl)-5-fluorophenyl]ethyl}sulfonyl)propanoic Acid]
